A word on the GI50: it is the concentration at which growth is held to half of that of the control.

These results are taken from ChEMBL document CHEMBL1201862, “PubChem BioAssay data set” (2004).

Structures are written as SMILES.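 Test compounds were applied to cells in 96-well plates for 48 hours at 5 doses. The concentration for 50% growth inhibition is given as GI50.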 Calls of active or inactive are those of the source. Rule as the data show it: active = GI50 up to about 1.1 µM and inactive = higher.

Among the test systems are CCRF-CEM; HCC 2998; HCT-15; HL-60; HOP-92; Hs-578T; M14; MDA-N; OVCAR-4; SW-620; UACC-257; UO-31; EKVX; MDA-MB-435; OVCAR-5; OVCAR-8; SF-295; TK-10; NCI-H522; PC-3.
Common to all, as to test: DTP human tumour cell line panel, 48 h

Regarding `COc1ccc(/C(C)=N/NC(=O)c2ccncc2)cc1OC`, the GI50 is > 10 µM (inactive) with CCRF-CEM; > 10 µM (inactive) in the test on HCC 2998; > 10 µM with HCT-15; > 10 µM (inactive) with HL-60; > 10 µM (inactive) in the test on HOP-92; 7.05 µM (inactive) with Hs-578T. Besides, the GI50 in the test on M14 was > 10 µM (inactive); with MDA-N it was > 10 µM (inactive); in the test with OVCAR-4, > 10 µM (inactive); with SW-620 it was > 10 µM (inactive); in the test with UACC-257, > 10 µM (inactive); with UO-31, 9.08 µM (inactive).

With `CC(C)[C@H](C)/C=C/[C@@H](C)C1CC[C@H]2[C@@]34C=C[C@]5(C[C@@H](O)CC[C@]5(C)[C@H]3CC[C@]12C)OO4` (stereo not given in full), the GI50 in the test with EKVX is 39.3 µM (inactive); in the test on HCC 2998, 21.9 µM (inactive); in the test with HCT-15, 32.8 µM; in the test with HL-60, 17.2 µM (inactive); in the test with HOP-92, 32.4 µM (inactive); in the test with M14, 40.7 µM (inactive). The GI50 in the test on MDA-MB-435 is 29.6 µM (inactive); with MDA-N, 35.1 µM (inactive); with OVCAR-4, 40.1 µM (inactive); in the test with OVCAR-5, > 100 µM (inactive); in the test with OVCAR-8, 20.8 µM (inactive); in the test with SF-295, 32.7 µM (inactive). Besides, the GI50 in the test with SW-620 was 27.1 µM (inactive); with TK-10, 42 µM (inactive); with UACC-257 it was > 100 µM (inactive); with UO-31 it was 37.3 µM (inactive).

On to `CO/C(=N\N=C\c1ccc(C(F)(F)F)cc1)c1ccncc1`, for which the GI50 in the test on CCRF-CEM is > 10 µM (inactive); in the test with EKVX it was > 10 µM (inactive); with HCC 2998, > 10 µM (inactive); in the test on HCT-15, > 10 µM; in the test on HL-60 it was > 10 µM (inactive); in the test with HOP-92, > 10 µM (inactive). Further, the GI50 in the test with M14, in the test on MDA-MB-435, in the test with MDA-N, in the test on NCI-H522, in the test with OVCAR-4 and in the test on OVCAR-5 was > 10 µM (inactive) each time. In addition, the GI50 with OVCAR-8, in the test with PC-3, in the test on SF-295, in the test on SW-620, with TK-10 and in the test on UACC-257 was > 10 µM (inactive) each time. Moreover, in the test with UO-31, the GI50 is > 10 µM (inactive).

For the compound `CCn1c(-c2cc3ccccc3cc2OC(C)=O)n[nH]c1=S`, the GI50 was 1.16 µM (inactive) with CCRF-CEM; 9.95 µM (inactive) in the test with EKVX; 18 µM (inactive) with HCC 2998; 27 µM in the test with HCT-15; 0.0805 µM (active) with HL-60; 58.1 µM (inactive) in the test on HOP-92. Besides, the GI50 was 15.2 µM (inactive) in the test with Hs-578T; 24.2 µM (inactive) with M14; 23.3 µM (inactive) in the test on MDA-MB-435; 16.1 µM (inactive) in the test with NCI-H522; 30 µM (inactive) in the test on OVCAR-4; 44.6 µM (inactive) in the test on OVCAR-5. The GI50 in the test on OVCAR-8 was 38.4 µM (inactive); with PC-3, 15.8 µM (inactive); in the test with SF-295, 23.4 µM (inactive); with SW-620, 35 µM (inactive); in the test on TK-10, 27.4 µM (inactive); in the test with UACC-257, 24.2 µM (inactive). In addition, the GI50 in the test on UO-31 is 67.8 µM (inactive).

As to `COc1ccc(N[S+]([O-])c2c(C)cc(C)cc2C)cc1` (stereo not given), the GI50 in the test with CCRF-CEM is > 100 µM (inactive); in the test on EKVX it was 43.8 µM (inactive); in the test with HCC 2998, 19.5 µM (inactive); in the test with HCT-15, 18.2 µM; with HL-60 it was 33 µM (inactive); with Hs-578T it was 34.4 µM (inactive). In addition, the GI50 in the test on M14 is 77.8 µM (inactive); in the test on MDA-MB-435, 21.2 µM (inactive); with MDA-N, 93.1 µM (inactive); with NCI-H522 it was 19.1 µM (inactive); in the test on OVCAR-4, 86.5 µM (inactive); with OVCAR-5, > 100 µM (inactive). Besides, the GI50 in the test with OVCAR-8 is 72.1 µM (inactive); in the test on SF-295 it was > 100 µM (inactive); in the test with SW-620, 48.2 µM (inactive); in the test with TK-10 it was > 100 µM (inactive); in the test on UACC-257 it was 70.1 µM (inactive); with UO-31 it was 18.2 µM (inactive).

Regarding `CC(C)(Cc1ccccc1)Cc1cc(O)ccc1O`, the GI50 in the test on CCRF-CEM was 4.49 µM (inactive); in the test with EKVX it was 24.9 µM (inactive); in the test with HCC 2998, 20 µM (inactive); in the test with HCT-15, 17.5 µM; in the test with HL-60, 2.22 µM (inactive); in the test with HOP-92, 14.4 µM (inactive). The GI50 in the test on M14 is 17.6 µM (inactive); in the test on MDA-MB-435, 17.2 µM (inactive); in the test with MDA-N, 16.4 µM (inactive); with NCI-H522, 4.93 µM (inactive); in the test on OVCAR-4, 16.4 µM (inactive); in the test with OVCAR-5, 30.8 µM (inactive). Besides, the GI50 in the test on OVCAR-8 was 17.2 µM (inactive); in the test on PC-3 it was 22.2 µM (inactive); with SF-295 it was 18 µM (inactive); in the test on SW-620 it was 22.6 µM (inactive); with TK-10, 36.2 µM (inactive); in the test with UACC-257 it was 13.9 µM (inactive). Also, in the test on UO-31, the GI50 was 13.4 µM (inactive).

In the case of `c1ccc2c(c1)SCCCS2`, the GI50 is > 100 µM (inactive) in the test on CCRF-CEM; > 100 µM (inactive) in the test on EKVX; > 100 µM (inactive) with HCC 2998; > 100 µM in the test on HCT-15; > 100 µM (inactive) with HL-60; 22.4 µM (inactive) in the test on HOP-92. In addition, the GI50 with M14, with MDA-MB-435, in the test on MDA-N, with NCI-H522, in the test on OVCAR-4 and with OVCAR-5 was > 100 µM (inactive) in each case. The GI50 in the test on OVCAR-8, in the test with PC-3, in the test on SF-295, with SW-620, with TK-10 and in the test on UACC-257 was > 100 µM (inactive) each time. Moreover, in the test on UO-31, the GI50 was > 100 µM (inactive).

On to `NC(=O)C1Cc2cc3c(cc21)OCO3` (stereo not given), for which the GI50 was > 100 µM (inactive) with EKVX; > 100 µM (inactive) in the test with HCC 2998; > 100 µM in the test on HCT-15; > 100 µM (inactive) in the test on Hs-578T; > 100 µM (inactive) in the test with M14; > 100 µM (inactive) in the test with MDA-N. Besides, the GI50 in the test on NCI-H522, in the test on OVCAR-5, in the test with OVCAR-8, in the test on PC-3, with SF-295 and in the test on TK-10 was > 100 µM (inactive) throughout. Moreover, the GI50 in the test on UACC-257 and in the test with UO-31 was > 100 µM (inactive) in each case.

Turning to `CCCCCC[C@H]1CC(=O)C2CCCC[C@@]23CC[C@H](CCl)N13.CCCCCC[C@H]1CC(=O)C2CCCC[C@@]23C[C@H](Cl)CN13` (stereo not given in full), the GI50 was 33.2 µM (inactive) with CCRF-CEM; 49.9 µM (inactive) in the test on EKVX; > 100 µM (inactive) in the test with HCC 2998; 60.3 µM with HCT-15; 21.8 µM (inactive) with HL-60; 24.2 µM (inactive) in the test on HOP-92. Besides, the GI50 in the test with Hs-578T is 8.53 µM (inactive); in the test on M14 it was 29.2 µM (inactive); in the test with MDA-MB-435, 57.8 µM (inactive); in the test with NCI-H522 it was 17.9 µM (inactive); in the test on OVCAR-4, 40.2 µM (inactive); in the test with OVCAR-5, > 100 µM (inactive). Besides, the GI50 in the test on OVCAR-8 is 25.4 µM (inactive); in the test on PC-3, 23.3 µM (inactive); in the test on SF-295, 51.2 µM (inactive); in the test on TK-10, 43.9 µM (inactive); in the test with UACC-257, 43 µM (inactive); with UO-31, 24.3 µM (inactive).

Turning to `COC(=O)CCC1=CCC2(SC)C(=O)Nc3cccc1c32` (stereo not given), the GI50 in the test with CCRF-CEM was > 100 µM (inactive); with EKVX, 65.3 µM (inactive); with HCC 2998 it was > 100 µM (inactive); in the test with HCT-15, > 100 µM; with HL-60, > 100 µM (inactive); with HOP-92, > 100 µM (inactive). The GI50 in the test with Hs-578T, with M14, in the test with MDA-MB-435, with NCI-H522, with OVCAR-4 and in the test with OVCAR-5 was > 100 µM (inactive) in each case. For the same compound, the GI50 in the test on OVCAR-8, in the test on PC-3, in the test with SF-295, in the test with SW-620, in the test with TK-10 and in the test with UACC-257 was > 100 µM (inactive) each time. In the test on UO-31, the GI50 was > 100 µM (inactive).

As for `CCOc1ccc2c(c1)c(CC(=O)O)cn2C`, the GI50 was > 100 µM (inactive) with CCRF-CEM; > 100 µM (inactive) in the test on EKVX; > 100 µM (inactive) in the test with HCC 2998; > 100 µM with HCT-15; > 100 µM (inactive) in the test with HL-60; 45.6 µM (inactive) in the test with HOP-92. Moreover, the GI50 in the test with Hs-578T, in the test with M14, in the test on MDA-MB-435, with NCI-H522, in the test with OVCAR-8 and with PC-3 was > 100 µM (inactive) throughout. The GI50 in the test with SF-295, in the test with TK-10, in the test with UACC-257 and in the test with UO-31 was > 100 µM (inactive) each time.

For the compound `COc1ccc(NCn2nc(CCCCCCCCc3nn(CNc4ccc(OC)cc4)c(=S)o3)oc2=S)cc1`, the GI50 in the test on EKVX is > 100 µM (inactive); in the test on HCC 2998, > 100 µM (inactive); with HCT-15, > 100 µM; with HOP-92 it was > 100 µM (inactive); in the test with M14, > 100 µM (inactive); in the test on MDA-MB-435 it was > 100 µM (inactive). The GI50 in the test with MDA-N, in the test with NCI-H522, with OVCAR-4, in the test with OVCAR-5, in the test with PC-3 and in the test on SF-295 was > 100 µM (inactive) each time. Further, the GI50 in the test on SW-620, in the test with TK-10, with UACC-257 and with UO-31 was > 100 µM (inactive) each time.
